Results as given in patent US20260207548A1, “METHODS AND COMPOSITIONS FOR THE TREATMENT OF VASCULAR ANOMALIES” (THE CHILDREN'S MEDICAL CENTER CORPORATION, priority 2022, published 2026).
Entries after “also recorded” stand apart in the source; their conditions may differ.

Legend:
[1] = tested on: Hemangioma-derived stem cells (HemSC); assay: IH xenograft model: patient-derived HemSC in Matrigel injected subcutaneously into nude mice, human blood vessel formation; format: in vivo
Protocol: MilliporeSigma) was prepared in DMSO. […] Dako, Glostrup, 0823) to stain human ECs. Next, sections were incubated with Alexa Fluor 647 chicken anti-mouse IgG (1:200, Invitrogen, Thermo Fisher Scientific) as a secondary antibody (FIG. 9C, 9D).

[2] = tested on: zebrafish; conditions: in vivo; cited from earlier work
[3] = tested on: cholesterol biosynthesis in HUVEC; assay: Endogenous cholesterol in cholesterol-depleted HUVEC by mass spectrometry; format: cell-based, human; conditions: 16 hours
Protocol: Cell culture: HUVECs were grown in EBM-2 media (Lonza, CC-3156) and supplemented with EGM-2 bullet kit (Lonza, CC-3162). HUVECs were seeded on 0.5% gelatin-coated 6-well plates at a density of 1.5×10^5 cells/well for overnight.
Methyl-β-cyclodextrin treatment: The day after cell seeding cells were treated with, (MBCD, Sigma #C4555) at a concentration of 2.5 mM to ensure a similar level of endogenous cholesterol among the groups. The treatment with MBCD was completely withdrawn after 4 hours by discarding the media and washed the cells with PBS. […] Cells were then washed with PBS and trypsinized. Following trypsinization cells were washed with PBS and centrifuged (FIG. 4B, 4C).
Cholesterol measurement using Targeted Mass Spectrometry: Lipids were extracted from the cell pellets through one-phase extraction with 202 μL of BuOH: MeOH (1:1) (Sigma #71-36-3 and #67-56-1) that contains […] of cholesterol-d7 (Cayman Chemical #83199-47-7) as the internal standard. The cholesterol analysis was performed on a Thermo Fisher TSQ Altis triple quadrupole mass spectrometer, operated in positive ion mode, coupled to a Vanquish UHPLC system (Thermo Fisher, Waltham, USA) using the transition from precursor mass of m/z 369.3516 (MS1) to m/z 161.1 (MS3) for cholesterol and 376.4 to 161.1 for cholesterol-d7 [REF]. […]

[4] = tested on: breast cancer model; conditions: in vivo; cited from earlier work
[5] = tested on: β1- and β2-adrenergic receptors; conditions: cited from earlier work
[6] = target: T1, SOX18 (Homo sapiens, UniProt P35713); conditions: cited from earlier work
T1 sequence (P35713 1-384): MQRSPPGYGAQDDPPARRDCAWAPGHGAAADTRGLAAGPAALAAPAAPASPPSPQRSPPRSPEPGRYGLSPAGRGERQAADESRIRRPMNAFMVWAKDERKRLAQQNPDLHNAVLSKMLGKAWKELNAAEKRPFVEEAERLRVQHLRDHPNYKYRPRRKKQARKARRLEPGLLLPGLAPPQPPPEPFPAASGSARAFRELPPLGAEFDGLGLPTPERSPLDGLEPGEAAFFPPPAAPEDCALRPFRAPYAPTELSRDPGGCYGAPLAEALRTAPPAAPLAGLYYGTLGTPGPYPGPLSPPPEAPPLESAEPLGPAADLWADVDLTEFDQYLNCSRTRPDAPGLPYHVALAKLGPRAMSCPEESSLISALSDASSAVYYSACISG

[7] = tested on: infantile hemangioma; conditions: infants with IH; cited from earlier work
[8] = tested on: LDL-receptor; assay: LDL-receptor mRNA in HemSC as indirect measure of HMGCR inhibition; format: cell-based, human; conditions: 1 μM atorvastatin, 24 hours
[9] = tested on: HemSC; conditions: atorvastatin 0.1 μM, 6 days
[10] = tested on: HemSC; conditions: earlier work; cited from earlier work
[11] = tested on: SREBP2; assay: SOX18 shRNA knockdown HemEC: SREBP2 Western blot and qPCR of SREBP2 target genes; format: cell-based, human; conditions: shSOX18 HemEC
Protocol: shRNA knockdown of SOX18: HemEC (n=3) were transduced with SOX18 shRNA lentivirus (TRCN0000017450, Sigma) or an empty vector control virus (Sigma) followed by puromycin (1 μg/mL) selection for 5 days. Thereafter, cells were maintained in full media without puromycin. Knockdown efficiency was confirmed by qPCR and Western Blot (FIG. 7C-7G, 8A-8B).
(§1) Cells were lysed in a RIPA-based lysis buffer (25 mM Tris HCl pH 7.6, 150 mM NaCl, 1% NP-40, 1% sodium deoxycholate, 0.1% SDS) with protease and phosphatase inhibitors (Cell Signaling Technology). Cell extracts were electrophoresed by sodium dodecyl sulfate-polyacrylamide gel electrophoresis (SDS-PAGE), transferred to nitrocellulose or to polyvinylidene difluoride (PDVF) and probed with SOX18 D-8 (Santa Cruz Biotechnology) or SREBP2 clone 22D5 (MilliporeSigma) and GAPDH (Cell Signaling Technology). All signals were detected by enhanced chemiluminescence. The densitometric analysis was conducted by using Fiji ImageJ software.

[12] = tested on: MVP genes (HMGCS1, HMGCR, MVK, ABCA1); assay: Mevalonate pathway (MVP) gene transcripts in differentiating HemSC, bulk RNA-seq and qPCR; format: cell-based, human; conditions: for transcripts encoding MVP enzymes (incl. HMGCR, HMGCS1, MVK), RNA-seq: 20 μM, 2 hours, Day 6 of differentiation, hydrochloride
[13] = tested on: SREBP2; assay: Western blot of SREBP2 in HemSC undergoing endothelial differentiation; format: cell-based, human; conditions: 2 hours on Day 6 of differentiation, hydrochloride
Protocol: as §1

[14] = tested on: Hemangioma-derived stem cells (HemSC); conditions: earlier work; cited from earlier work

With `CCC(C)(C)C(=O)O[C@H]1C[C@@H](C)C=C2C=C[C@H](C)[C@H](CC[C@@H]3C[C@@H](O)CC(=O)O3)[C@H]21` [simvastatin] the “lowest dose that showed significant reduction in IH vessels” value ([1]; simvastatin dose response 0.1-10 mg/kg/d) was 1 mg/kg/day.
In the case of `O=C(O)c1c(O)cccc1CCc1ccc2ccccc2c1` [Sm4], the vascular development [2] is given as “suppresses vascular development in zebrafish”, the endogenous cholesterol levels ([3]; 40 μM Sm4 after MBCD depletion) is given as “significantly reduced; also recorded: decreased new synthesis of cholesterol” and the “tumor angio- and lymph-angiogenesis” value [4] is given as “suppresses”.
In the case of `CC(C)NC[C@H](O)COc1cccc2ccccc12` (single isomer, unassigned) [S(−) enantiomer], the “β1 and β2-adrenergic receptor antagonism” value [5] is listed as “potent antagonist”.
For `CC(C)NC[C@@H](O)COc1ccc(CC(N)=O)cc1` [R(+) atenolol], the SOX18 activity [6] is given as “inhibit”.
For `CC(C)NCC(O)COc1cccc2ccccc12` (stereo not drawn) [propranolol], the complete response rate [7] is listed as 60% and the “β1 and β2-adrenergic receptor antagonism” value [5] is listed as “non-selective antagonist”.
With `CC(C)c1c(C(=O)Nc2ccccc2)c(-c2ccccc2)c(-c2ccc(F)cc2)n1CC[C@@H](O)C[C@@H](O)CC(=O)O` [atorvastatin] the “LDL-R mRNA” value [8] was “significant upregulation of LDL-R mRNA; also recorded: increase LDL receptor mRNA”, the “VEGF-B induced endothelial differentiation (mRNA of CD31 and VE-Cadherin)” value [9] was “significantly inhibited endothelial differentiation; also recorded: inhibited VEGF-B induced endothelial differentiation” and the “human CD31+ blood vessel formation from HemSC” value ([1]; atorvastatin 1 mg/kg/d, 7 days) was “significantly blocked the formation of human blood vessels; also recorded: significantly inhibited human CD31+ blood vessel formation”. For the same compound, the “HemSC blood vessel formation in xenograft model” value ([1]; overall statement, no single dose) was “inhibited blood vessel formation; also recorded: significantly reduced HemSC blood vessel formation in a dose-dependent manner; also recorded: inhibit IH vessel formation”.
For `CC(C)NC[C@@H](O)COc1cccc2ccccc12.Cl` [R(+) propranolol, R(+) propranolol hydrochloride], the “HemSC endothelial differentiation in vitro” value [10] is given as “inhibits”, the “HMGCS1 and HMGCR mRNA levels” value [11] is given as “did not reduce the mRNA levels” and the endogenous cholesterol levels ([3]; 20 μM R+ propranolol after MBCD depletion, hydrochloride) is given as “significantly reduced; also recorded: decreased new synthesis of cholesterol”. The “transcripts encoding MVP enzymes (incl. HMGCR, HMGCS1, MVK), RNA-seq” value [12] was “significantly reduced transcripts encoding several enzymes of the MVP”, the “transcripts encoding MVP enzymes (incl. HMGCR, HMGCS1, MVK), RNA-seq” value ([12]; listed as R+ propranolol) was “inhibits eight enzymes in the mevalonate pathway” and the “ABCA1 mRNA, qPCR” value ([12]; 2 hours or 4 days treatment) was “upregulated”. The “HMGCS1, HMGCR and MVK mRNA, qPCR” value ([12]; 2 hours or 4 days treatment) was “Downregulation”, the “downregulation of MVP transcripts” value ([12]; Day 4 of differentiation) was “not seen” and the “mature 62 kDa SREBP2” value [13] was “decreased mature 62 kDa SREBP2”. For the same compound, the “mature 62 kDa SREBP2” value ([13]; listed as R+ propranolol) was “decreased levels of 62 kDa mature SREBP2”, the “HemSC vasculogenesis in vivo” value [14] was “inhibits” and the SOX18 activity [6] was “inhibit”.
